IC50 data for 52 compounds are collected here from patent US12421225B2, “Heteroaromatic amide derivative and medicament containing the same” (KAKEN PHARMACEUTICAL CO., LTD., priority 2018, dated 2025).

Usually IC50 stands for the concentration that gives 50% inhibition. Lower therefore signals inhibition by little substance.

The target of one data set is human Nav1.5 (Homo sapiens (Human), UniProt Q14524). In words: Human Nav1.5 inhibitory activity evaluation (automated patch clamp QPatch16X, HEK293 cells stably expressing human Nav1.5). It is filed as cell-based. The conditions noted are these: human Nav1.5, automated patch clamp. In short, it runs like this:
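IC50 derived from concentration-response of inward current at the 20th of 20 action-potential-mimicking pulses (holding −80 mV, leak corrected with −100 mV step). HEK293 cells stably expressing human Nav1.5, room temperature, extracellular pH 7.4, intracellular CsF-based pH 7.3, 0.1% DMSO.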
(The patch-clamp technique gives a direct electrical read-out from membranes.)

Another data set concerns the target human Nav1.7 (Homo sapiens (Human), UniProt Q15858). In words: Human Nav1.7 inhibitory activity evaluation (automated patch clamp QPatch16X, HEK293A cells stably expressing human Nav1.7 and human Navβ1). The conditions noted are these: human Nav1.7, automated patch clamp. It is filed as cell-based. In short, it runs like this:
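IC50 calculated from the concentration-response of inward current evoked by the second −10 mV, 50 ms depolarisation, which follows a 15 s conditioning step at roughly 30-40% inactivation and a 100 ms −120 mV interval. Cells: HEK293A expressing human Nav1.7/Navβ1, automated patch clamp, room temperature, 0.1% DMSO final.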

Where only a bound is given, the exact number is not on record here.

Sequence of human Nav1.7 (Q15858 whole entry): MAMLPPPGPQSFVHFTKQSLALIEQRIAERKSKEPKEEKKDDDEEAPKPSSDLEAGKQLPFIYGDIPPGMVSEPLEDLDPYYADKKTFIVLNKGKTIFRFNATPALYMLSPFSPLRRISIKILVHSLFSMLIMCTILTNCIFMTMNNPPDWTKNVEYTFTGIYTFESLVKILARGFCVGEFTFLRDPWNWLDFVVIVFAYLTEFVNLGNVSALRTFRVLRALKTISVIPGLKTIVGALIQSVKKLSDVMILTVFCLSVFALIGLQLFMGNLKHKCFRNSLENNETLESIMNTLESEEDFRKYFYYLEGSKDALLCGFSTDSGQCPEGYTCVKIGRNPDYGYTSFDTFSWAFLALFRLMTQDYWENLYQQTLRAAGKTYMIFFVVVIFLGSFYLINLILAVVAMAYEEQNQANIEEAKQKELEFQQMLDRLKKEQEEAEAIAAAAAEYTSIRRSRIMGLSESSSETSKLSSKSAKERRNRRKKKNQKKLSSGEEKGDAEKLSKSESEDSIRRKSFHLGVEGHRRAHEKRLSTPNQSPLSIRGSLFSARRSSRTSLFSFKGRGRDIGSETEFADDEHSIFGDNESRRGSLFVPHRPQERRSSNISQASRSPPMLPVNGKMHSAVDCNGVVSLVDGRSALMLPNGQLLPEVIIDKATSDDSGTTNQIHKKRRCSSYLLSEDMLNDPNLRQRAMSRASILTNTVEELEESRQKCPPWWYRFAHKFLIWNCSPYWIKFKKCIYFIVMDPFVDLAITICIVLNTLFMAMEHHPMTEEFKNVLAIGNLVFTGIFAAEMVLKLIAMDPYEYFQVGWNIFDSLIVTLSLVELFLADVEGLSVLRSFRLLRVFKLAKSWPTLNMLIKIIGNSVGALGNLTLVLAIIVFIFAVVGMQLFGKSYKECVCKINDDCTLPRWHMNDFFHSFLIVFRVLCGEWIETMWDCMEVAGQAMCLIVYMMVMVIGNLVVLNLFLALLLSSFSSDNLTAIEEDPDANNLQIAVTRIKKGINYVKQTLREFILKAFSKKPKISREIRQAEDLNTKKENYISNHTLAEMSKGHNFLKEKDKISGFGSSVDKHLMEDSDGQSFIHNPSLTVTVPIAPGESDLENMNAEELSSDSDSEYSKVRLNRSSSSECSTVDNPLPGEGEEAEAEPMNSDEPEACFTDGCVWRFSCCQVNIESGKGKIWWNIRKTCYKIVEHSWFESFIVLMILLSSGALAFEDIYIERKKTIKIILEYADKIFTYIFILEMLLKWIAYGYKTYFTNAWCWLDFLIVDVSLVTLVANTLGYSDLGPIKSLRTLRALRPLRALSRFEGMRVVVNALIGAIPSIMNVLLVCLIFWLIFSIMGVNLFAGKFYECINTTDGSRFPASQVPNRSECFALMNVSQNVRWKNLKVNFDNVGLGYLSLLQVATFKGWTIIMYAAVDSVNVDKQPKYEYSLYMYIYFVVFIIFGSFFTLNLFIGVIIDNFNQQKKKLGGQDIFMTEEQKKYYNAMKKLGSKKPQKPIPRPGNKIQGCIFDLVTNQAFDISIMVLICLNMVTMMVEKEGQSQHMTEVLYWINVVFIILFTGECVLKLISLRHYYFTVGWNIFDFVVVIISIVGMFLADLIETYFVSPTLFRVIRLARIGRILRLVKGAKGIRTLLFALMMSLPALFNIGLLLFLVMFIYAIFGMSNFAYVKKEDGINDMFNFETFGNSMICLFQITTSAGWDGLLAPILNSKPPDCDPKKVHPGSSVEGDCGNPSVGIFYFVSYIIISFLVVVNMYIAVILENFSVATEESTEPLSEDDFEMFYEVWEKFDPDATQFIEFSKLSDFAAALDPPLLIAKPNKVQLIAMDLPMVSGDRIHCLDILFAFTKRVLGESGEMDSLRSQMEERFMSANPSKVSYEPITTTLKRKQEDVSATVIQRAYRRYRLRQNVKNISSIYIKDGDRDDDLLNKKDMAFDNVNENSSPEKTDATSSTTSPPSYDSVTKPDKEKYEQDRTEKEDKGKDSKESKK
Sequence of human Nav1.7 (Q07699 19-218 partner): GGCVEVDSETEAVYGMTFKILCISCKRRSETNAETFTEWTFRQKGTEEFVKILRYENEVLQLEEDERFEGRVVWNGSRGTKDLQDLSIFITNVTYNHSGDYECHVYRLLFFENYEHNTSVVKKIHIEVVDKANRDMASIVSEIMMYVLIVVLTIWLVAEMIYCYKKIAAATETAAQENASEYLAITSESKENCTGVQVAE
Sequence of human Nav1.5 (Q14524 whole entry): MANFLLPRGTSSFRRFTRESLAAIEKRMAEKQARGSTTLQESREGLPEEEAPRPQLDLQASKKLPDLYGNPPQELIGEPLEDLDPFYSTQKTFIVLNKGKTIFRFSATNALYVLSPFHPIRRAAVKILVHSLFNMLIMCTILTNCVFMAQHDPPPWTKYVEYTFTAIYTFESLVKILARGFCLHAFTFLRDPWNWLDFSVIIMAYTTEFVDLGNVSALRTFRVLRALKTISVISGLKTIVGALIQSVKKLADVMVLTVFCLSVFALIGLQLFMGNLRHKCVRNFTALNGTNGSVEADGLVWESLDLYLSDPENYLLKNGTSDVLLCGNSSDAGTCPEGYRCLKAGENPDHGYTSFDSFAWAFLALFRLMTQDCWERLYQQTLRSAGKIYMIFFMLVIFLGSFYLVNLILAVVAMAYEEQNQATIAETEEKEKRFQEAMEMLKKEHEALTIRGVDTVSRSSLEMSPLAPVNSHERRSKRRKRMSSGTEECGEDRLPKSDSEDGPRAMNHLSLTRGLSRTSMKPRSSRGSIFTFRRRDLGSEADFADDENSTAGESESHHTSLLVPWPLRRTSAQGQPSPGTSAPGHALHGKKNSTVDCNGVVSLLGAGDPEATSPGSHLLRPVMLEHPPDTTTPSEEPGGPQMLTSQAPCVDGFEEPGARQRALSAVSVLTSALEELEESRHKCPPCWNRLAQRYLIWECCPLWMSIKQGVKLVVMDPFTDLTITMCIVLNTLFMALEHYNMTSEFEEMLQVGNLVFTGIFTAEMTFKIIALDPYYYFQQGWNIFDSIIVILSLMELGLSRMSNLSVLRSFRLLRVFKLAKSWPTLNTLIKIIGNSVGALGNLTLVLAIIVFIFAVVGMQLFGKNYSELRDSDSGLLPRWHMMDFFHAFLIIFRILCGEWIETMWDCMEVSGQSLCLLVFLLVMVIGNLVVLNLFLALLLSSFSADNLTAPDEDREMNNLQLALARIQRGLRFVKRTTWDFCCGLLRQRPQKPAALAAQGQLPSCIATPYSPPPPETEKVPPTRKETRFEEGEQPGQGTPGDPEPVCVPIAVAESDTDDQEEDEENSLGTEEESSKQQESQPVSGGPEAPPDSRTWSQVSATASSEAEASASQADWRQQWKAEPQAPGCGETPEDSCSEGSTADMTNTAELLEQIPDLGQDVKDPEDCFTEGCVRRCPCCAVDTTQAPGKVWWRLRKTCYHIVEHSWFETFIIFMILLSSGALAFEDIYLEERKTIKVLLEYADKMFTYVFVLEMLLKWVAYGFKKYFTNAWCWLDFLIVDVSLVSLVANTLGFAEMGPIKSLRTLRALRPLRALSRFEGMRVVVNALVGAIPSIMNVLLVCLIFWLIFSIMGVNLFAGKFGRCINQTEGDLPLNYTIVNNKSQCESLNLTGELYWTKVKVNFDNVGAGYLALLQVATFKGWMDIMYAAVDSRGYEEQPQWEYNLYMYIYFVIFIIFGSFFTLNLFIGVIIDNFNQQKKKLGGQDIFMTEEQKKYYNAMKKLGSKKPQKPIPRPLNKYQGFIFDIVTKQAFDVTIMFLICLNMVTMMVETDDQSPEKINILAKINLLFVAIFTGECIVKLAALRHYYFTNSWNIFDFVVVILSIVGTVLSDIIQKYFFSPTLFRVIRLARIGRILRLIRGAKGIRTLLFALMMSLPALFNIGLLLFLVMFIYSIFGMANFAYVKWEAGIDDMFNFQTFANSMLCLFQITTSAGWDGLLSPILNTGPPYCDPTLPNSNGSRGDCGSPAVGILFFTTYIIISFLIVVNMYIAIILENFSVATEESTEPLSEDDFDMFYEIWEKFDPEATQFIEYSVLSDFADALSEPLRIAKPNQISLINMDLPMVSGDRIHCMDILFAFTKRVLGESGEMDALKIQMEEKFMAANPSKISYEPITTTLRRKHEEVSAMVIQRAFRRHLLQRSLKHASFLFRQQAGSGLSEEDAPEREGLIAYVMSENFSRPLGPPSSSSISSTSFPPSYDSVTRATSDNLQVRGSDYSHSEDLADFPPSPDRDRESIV

Consider `O=C(N[C@H]1COc2ccc(Cl)cc2C1)c1cc2n(n1)CCN(CCC(F)(F)F)C2` [Example 261], for which the IC50 against human Nav1.5 and against human Nav1.7 was less than 1000 nM throughout.
`O=C(N[C@H]1COc2cccc(Cl)c2C1)c1cc2n(n1)CCN(CCC(F)(F)F)C2` [Example 262]: the figures for the concentration for half-maximal inhibition (IC50) against human Nav1.5 and against human Nav1.7 were no less than 3000 nM and less than 10000 nM, respectively.
The like results for `O=C(N[C@H]1COc2ccc(Cl)cc2C1)c1cc2n(n1)CCN(CCC1CC1)C2` [Example 263] were, in that order, 1000 to 3000 nM and less than 1000 nM.
The like results for `O=C(N[C@H]1COc2ccc(C(F)(F)F)cc2C1)c1cc2n(n1)CCN(CCOC1CCC1)C2` [Example 265] were, in that order, no less than 3000 nM and less than 1000 nM.
The matching figures for `O=C(N[C@H]1COc2ccc(COCC(F)(F)F)cc2C1)c1cc2n(n1)CCN(CCOC1CCC1)C2` [Example 266]: no less than 3000 nM and less than 1000 nM.
As for `O=C(N[C@H]1COc2ccc(C(F)(F)F)cc2C1)c1nn2c(c1-c1ccccn1)CN(CC(F)(F)F)CC2` [Example 267], the half-maximal inhibitory concentration (IC50) on human Nav1.5 was less than 1000 nM; on human Nav1.7 it was less than 10000 nM.
The matching figures for `N#Cc1ccc2c(c1)C[C@@H](NC(=O)c1cc3n(n1)CCN(Cc1ccc(F)cc1)C3)CO2` [Example 268, (R)—N-(6-cyanochroman-3-yl)-5-(4-fluorobenzyl)-4,5,6,7-tetrahydropyrazolo[1,5-a]pyrazine-2-carboxamide]: no less than 3000 nM and less than 1000 nM.
The matching figures for `CC(C)(C)OCCN1CCn2nc(C(=O)N[C@H]3COc4ccc(C(F)F)cc4C3)cc2C1` [Example 272]: no less than 3000 nM and less than 10000 nM.
The matching figures for `COc1cccc(CN2CCn3nc(C(=O)N[C@H]4COc5ccc(Cl)cc5C4)cc3C2)n1` [Example 273]: no less than 3000 nM and less than 1000 nM.
On to `O=C(N[C@H]1COc2ccccc2C1)c1nn2c(c1-c1ccccc1)CN(CC(F)(F)F)CC2` [Example 275], for which the 50% inhibitory concentration (IC50) is 1000 to 3000 nM at human Nav1.5 and less than 1000 nM against human Nav1.7.
The like results for `O=C(N[C@H]1COc2ccccc2C1)c1cc2n(n1)CCN(C(=O)Cc1ccccc1)C2` [Example 276] were, in that order, no less than 3000 nM and less than 10000 nM.
The matching figures for `O=C(N[C@H]1COc2ccccc2C1)c1cc2n(n1)CCN(S(=O)(=O)c1cccc(C(F)(F)F)c1)C2` [Example 277]: no less than 3000 nM and less than 10000 nM.
`N#Cc1ccc2c(c1)C[C@@H](NC(=O)c1cc3n(n1)CCN(c1ccc(F)cc1)C3)CO2` [Example 278]: the IC50 on human Nav1.5 was 1000 to 3000 nM; against human Nav1.7 it was less than 1000 nM.
The like results for `O=C(N[C@H]1COc2ccc(-c3cccnc3)cc2C1)c1cc2n(n1)CCN(c1ccc(F)cc1)C2` [Example 279] were, in that order, no less than 3000 nM and less than 1000 nM.
The like results for `N#Cc1ccc(N2CCn3nc(C(=O)N[C@H]4COc5ccc(Cl)cc5C4)cc3C2)nc1` [Example 280] were, in that order, less than 1000 nM and less than 10000 nM.
`CC(C)(C)N1CCn2nc(C(=O)N[C@H]3COc4ccc(Cl)cc4C3)cc2C1` [Example 281]: the IC50 against human Nav1.5 was no less than 3000 nM; against human Nav1.7 it was less than 10000 nM.
The like results for `N#Cc1ccc2c(c1)C[C@@H](NC(=O)c1cc3n(n1)CCN(C1(c4ccc(F)cc4)CC1)C3)CO2` [Example 282] were, in that order, 1000 to 3000 nM and less than 1000 nM.
The like results for `O=C(N[C@H]1COc2ccc(Cl)cc2C1)c1cc2n(n1)CCN(C1(C(F)(F)F)CC1)C2` [Example 283] were, in that order, less than 1000 nM and less than 1000 nM.
The like results for `CC(C)(c1ccccn1)N1CCn2nc(C(=O)N[C@H]3COc4ccc(Cl)cc4C3)cc2C1` [Example 285] were, in that order, 1000 to 3000 nM and less than 1000 nM.
On to `O=C(N[C@H]1COc2ccccc2C1)c1cc2n(n1)CCC(c1ccccc1)N2` (some centres unmarked) [Example 287], for which the half-maximal inhibitory concentration (IC50) on human Nav1.5 is no less than 3000 nM; at human Nav1.7 it was less than 10000 nM.
The like results for `O=C(NC1COc2cccc(-c3ccccc3)c2C1)c1cn2c(n1)CCC(C(F)(F)F)C2` (centres unmarked) [Example 291] were, in that order, no less than 3000 nM and less than 10000 nM.
As to `O=C(NC1COc2cccc(C(F)F)c2C1)c1cn2c(n1)CCC(C(F)(F)F)C2` (centres unmarked) [Example 292], the IC50 was 1000 to 3000 nM on human Nav1.5 and less than 1000 nM at human Nav1.7.
The matching figures for `N#Cc1cccc2c1CC(NC(=O)c1cn3c(n1)CCC(C(F)(F)F)C3)CO2` (centres unmarked) [Example 294]: no less than 3000 nM and less than 10000 nM.
The like results for `CCc1ccc2c(c1)CC(NC(=O)c1cn3c(n1)CCC(C(F)(F)F)C3)CO2` (centres unmarked) [Example 295] were, in that order, no less than 3000 nM and less than 1000 nM.
The matching figures for `O=C(c1cn2c(n1)CCC(C(F)(F)F)C2)N(Cc1ccccc1)C1COc2ccc(Br)cc2C1` (centres unmarked) [Example 298]: 1000 to 3000 nM and less than 1000 nM.
On to `COc1cccc(-c2c(C(=O)N[C@H]3COc4ccccc4C3)nc3n2CCCC3)n1` [Example 303], for which the IC50 on human Nav1.5 is 1000 to 3000 nM; against human Nav1.7 it was less than 1000 nM.
For the compound `O=C(N[C@H]1COc2ccc(C(F)(F)F)cc2C1)c1nc2n(c1-c1ccccn1)CCCC2` [Example 305], the IC50 was 1000 to 3000 nM on human Nav1.5 and less than 1000 nM against human Nav1.7.
The like results for `O=C(c1cn2c(n1)CCC(c1cccc(N3CCOCC3)n1)C2)N1CCC(c2ccccc2)C1` (centres unmarked) [Example 307] were, in that order, 1000 to 3000 nM and less than 10000 nM.
The matching figures for `CCNc1cccc(C2CCc3nc(C(=O)N4CCC(c5ccccc5)C4)cn3C2)n1` (centres unmarked) [Example 308]: 1000 to 3000 nM and less than 10000 nM.
The matching figures for `C[C@@H]1CN(c2cccc(C3CCc4nc(C(=O)N5CCC(c6ccccc6)C5)cn4C3)n2)C[C@H](C)O1` (some centres unmarked) [Example 311]: no less than 3000 nM and less than 10000 nM.
Take `O=C(c1cn2c(n1)CCC(c1cccc(OC3COC3)n1)C2)N1CCC(c2ccccc2)C1` (centres unmarked) [Example 313]: the IC50 against human Nav1.5 is no less than 3000 nM; against human Nav1.7, less than 10000 nM.
The matching figures for `COc1ncc(C(F)(F)F)cc1C1CCc2nc(C(=O)N3CCC(c4ccccc4)C3)cn2C1` (centres unmarked) [Example 316]: 1000 to 3000 nM and less than 10000 nM.
Take `COc1ccc(CCC2CCc3nc(C(=O)N4CCC(c5ccccc5)C4)cn3C2)cn1` (centres unmarked) [Example 317]: the values for the IC50 against human Nav1.5 and against human Nav1.7 were no less than 3000 nM and less than 10000 nM, respectively.
The like results for `O=C(c1cn2c(n1)CCC(C1CCC(F)(F)CC1)C2)N1CCC1Cc1ccccc1` (centres unmarked) [Example 318] were, in that order, no less than 3000 nM and less than 10000 nM.
The matching figures for `O=C(N[C@H]1COc2ccccc2C1)c1cn2c(n1)CCC(OCCOC(F)(F)F)C2` (some centres unmarked) [Example 321]: no less than 3000 nM and less than 10000 nM.
For the compound `O=C(NCCc1cccc(C(F)(F)F)c1)c1cn2c(n1)CNC(c1cccc(C(F)(F)F)n1)C2` (centres unmarked) [Example 324], the IC50 is no less than 3000 nM against human Nav1.5 and less than 10000 nM against human Nav1.7.
Regarding `CN1Cc2nc(C(=O)NCCc3cccc(OCC(F)(F)F)c3)cn2CC1c1ccc(C(F)(F)F)cc1` (centres unmarked) [Example 325], the results for the half-inhibitory concentration (IC50) against human Nav1.5 and against human Nav1.7 were no less than 3000 nM and less than 1000 nM, respectively.
Turning to `CN1Cc2nc(C(=O)NCCc3cccc(C(F)(F)F)c3)cn2CC1c1cccnc1C(F)(F)F` (centres unmarked) [Example 326], the IC50 at human Nav1.5 was no less than 3000 nM; against human Nav1.7, less than 10000 nM.
With `CN1Cc2nc(C(=O)NCCc3cccc(OCC4CCOCC4)c3)cn2CC1c1ccccc1` (centres unmarked) [Example 327], the IC50 at human Nav1.5 is no less than 3000 nM; against human Nav1.7, less than 10000 nM.
The matching figures for `CC(C)(C)CCC1Cn2cc(C(=O)N[C@H]3COc4ccccc4C3)nc2CN1` (some centres unmarked) [Example 328]: 1000 to 3000 nM and less than 10000 nM.
The matching figures for `CN1Cc2nc(C(=O)NCC(F)(F)c3cccc(C(F)(F)F)c3)cn2CC1c1ccccc1` (centres unmarked) [Example 331]: 1000 to 3000 nM and less than 10000 nM.
In the case of `CN(CCc1cccc(C(F)(F)F)c1)C(=O)c1cn2c(n1)CN(C)C(c1ccccc1)C2` (centres unmarked) [Example 332], the IC50 was no less than 3000 nM against human Nav1.5 and less than 10000 nM against human Nav1.7.
The matching figures for `CN1Cc2nc(C(=O)NCC(F)c3cccc(C(F)(F)F)c3)cn2CC1c1cccc(C(F)(F)F)n1` (centres unmarked) [Example 333]: no less than 3000 nM and less than 10000 nM.
The matching figures for `CN1Cc2nc(C(=O)NC3COc4cccc(C(F)(F)F)c4C3)cn2CC1c1ccccc1` (centres unmarked) [Example 334]: 1000 to 3000 nM and less than 10000 nM.
The matching figures for `O=C(c1cn2c(n1)CNC(c1cccc(OC(F)(F)F)c1)C2)N1CC[C@H](Oc2cccc(C(F)F)n2)C1` (some centres unmarked) [Example 336]: 1000 to 3000 nM and less than 10000 nM.
In the case of `O=C(c1cn2c(n1)CNC(c1cccc(OC(F)(F)F)c1)C2)N1CCOC(c2cccc(C(F)(F)F)c2)C1` (centres unmarked) [Example 337], the figures for the IC50 at human Nav1.5 and at human Nav1.7 were no less than 3000 nM and less than 10000 nM, respectively.
The like results for `O=C(N[C@H]1COc2ccccc2C1)c1nc2n(c1-c1ccccc1)CCN(CC(F)(F)F)C2` [Example 338] were, in that order, no less than 3000 nM and less than 10000 nM.
The matching figures for `O=C(N[C@H]1COc2ccccc2C1)c1cn2c(n1)COC(c1ccccc1)C2` (some centres unmarked) [Example 340]: no less than 3000 nM and less than 10000 nM.
The matching figures for `O=C(N[C@H]1COc2ccc(CC(F)(F)F)cc2C1)c1nc2n(c1-c1ccccn1)CCOC2` [Example 343]: 1000 to 3000 nM and less than 1000 nM.
In the case of `Cn1ccc(-c2c(C(=O)N[C@H]3COc4ccc(C(F)(F)F)cc4C3)nc3n2CCOC3)n1` [Example 345], the IC50 on human Nav1.5 was 1000 to 3000 nM; against human Nav1.7 it was less than 1000 nM.
The like results for `O=C(N[C@H]1COc2ccccc2C1)c1cc2n(n1)CCC(c1ccccc1)O2` (some centres unmarked) [Example 349] were, in that order, 1000 to 3000 nM and less than 1000 nM.
The matching figures for `O=C(c1cc2n(n1)CCC(c1ccccc1)O2)N1CCC(c2cccc(C(F)(F)F)c2)C1` (centres unmarked) [Example 350]: no less than 3000 nM and less than 10000 nM.
